Results reported in paper PMC5028351, “Natural flavonoids silymarin and quercetin improve the brain distribution of co-administered P-gp substrate drugs” (SpringerPlus, 2016).

Experiments:
P-gp [1] = target: T1, P-gp (Homo sapiens, UniProt P08183); assay: in vitro; conditions: Caco-2
Protocol: (§1) Caco-2 cells were seeded in transwell poly carbonate inserts (6 well, 0.4 µm pore size, Corning co-star Co.) at 70,000 cells per insert on the day of seeding. Cells were cultured in DMEM supplemented with 10 % fetal bovine serum and 1 % non essential amino acids (Gibco). All the cells were incubated at 37 °C in a humidified atmosphere with 5 % CO2 and 95 % air. For uptake studies, Caco-2 cells were seeded on to 0.7 cm^2 dishes at a density of approximately 70,000 cells per dish and used for experiment.

P-gp [2] = target: T1, P-gp; conditions: digoxin 10 µM alone
Protocol: as §1

Caco-2 = conditions: ref Collett et al. 2004; cited from earlier work
P-gp [3] = assay: In vivo P-gp inhibition study: plasma and brain pharmacokinetics of i.v. quinidine in mice with and without inhibitor pre-treatment; conditions: for Effect of pre-treatment on plasma profile of quinidine: quinidine 5 mg/kg i.v., inhibitor i.v. 0.5 h pre-treatment; for AUC(0-inf) / AUC(0-t) / Cmax / Tmax: male, C57, mouse, iv, 5 mg/kg
Protocol: Male C57 mice weighing 30–35 g and of 6–8 weeks old were taken and the animal experiments were conducted in the animal research facility of Syngene International limited, Bengaluru, India. […] Animal study protocols were approved by the Syngene International organisational animal ethics committee, Bengaluru, India.
Dose volumes (5 mL/kg) of drugs were administered by i.v. route via tail vein injection. […]
Mice were divided into three groups (n = 3–4). […] Blood and brain samples were collected at 0.5, 1, 3, 5 and 7 h post dose of probe substrate. Blood was collected from mice under mild anaesthesia via tail vein and collected blood was centrifuged at 5000 rpm to separate plasma.
After sacrificing the mice at different time points, brain was collected homogenised at 5× concentration with phosphate buffered saline using Bullet blender. Fifty µL of brain homogenate or plasma and 200 µL of internal standard (IS) in vehicle (70 % acetonitrile and 30 % water) were mixed in a 96-well hydrophilic solvinert plate. The acetonitrile mixtures were vortexed and centrifuged at 10,000 rpm for 10 min. Supernatant was collected in a 96 well plate and analysed by liquid chromatography with mass spectroscopy (LC-MS, QTRAP ABSCIEX API 4000).
Analysis was carried out using 4000 QTRAP LC/MS/MS system with triple Quadruple mass spectrometer (AB SCIEX) equipped with an electron spray ionisation (ESI). The mass spectrometer was operated in the ESI positive ion mode and detection of ions were performed in the multiple reaction monitoring (MRM) mode.

P-gp [4] = test system: P-gp; set-up: method as in O’Brien et al. 2013; conditions: P-gp inhibition using cyclosporin and verapamil; ref O’Brien et al. 2013; cited from earlier work
P-gp [5] = test system: P-gp; set-up: method as in Van Asperen et al. 1996; conditions: ref Van Asperen et al. 1996; cited from earlier work

T1 sequence (P08183 whole entry): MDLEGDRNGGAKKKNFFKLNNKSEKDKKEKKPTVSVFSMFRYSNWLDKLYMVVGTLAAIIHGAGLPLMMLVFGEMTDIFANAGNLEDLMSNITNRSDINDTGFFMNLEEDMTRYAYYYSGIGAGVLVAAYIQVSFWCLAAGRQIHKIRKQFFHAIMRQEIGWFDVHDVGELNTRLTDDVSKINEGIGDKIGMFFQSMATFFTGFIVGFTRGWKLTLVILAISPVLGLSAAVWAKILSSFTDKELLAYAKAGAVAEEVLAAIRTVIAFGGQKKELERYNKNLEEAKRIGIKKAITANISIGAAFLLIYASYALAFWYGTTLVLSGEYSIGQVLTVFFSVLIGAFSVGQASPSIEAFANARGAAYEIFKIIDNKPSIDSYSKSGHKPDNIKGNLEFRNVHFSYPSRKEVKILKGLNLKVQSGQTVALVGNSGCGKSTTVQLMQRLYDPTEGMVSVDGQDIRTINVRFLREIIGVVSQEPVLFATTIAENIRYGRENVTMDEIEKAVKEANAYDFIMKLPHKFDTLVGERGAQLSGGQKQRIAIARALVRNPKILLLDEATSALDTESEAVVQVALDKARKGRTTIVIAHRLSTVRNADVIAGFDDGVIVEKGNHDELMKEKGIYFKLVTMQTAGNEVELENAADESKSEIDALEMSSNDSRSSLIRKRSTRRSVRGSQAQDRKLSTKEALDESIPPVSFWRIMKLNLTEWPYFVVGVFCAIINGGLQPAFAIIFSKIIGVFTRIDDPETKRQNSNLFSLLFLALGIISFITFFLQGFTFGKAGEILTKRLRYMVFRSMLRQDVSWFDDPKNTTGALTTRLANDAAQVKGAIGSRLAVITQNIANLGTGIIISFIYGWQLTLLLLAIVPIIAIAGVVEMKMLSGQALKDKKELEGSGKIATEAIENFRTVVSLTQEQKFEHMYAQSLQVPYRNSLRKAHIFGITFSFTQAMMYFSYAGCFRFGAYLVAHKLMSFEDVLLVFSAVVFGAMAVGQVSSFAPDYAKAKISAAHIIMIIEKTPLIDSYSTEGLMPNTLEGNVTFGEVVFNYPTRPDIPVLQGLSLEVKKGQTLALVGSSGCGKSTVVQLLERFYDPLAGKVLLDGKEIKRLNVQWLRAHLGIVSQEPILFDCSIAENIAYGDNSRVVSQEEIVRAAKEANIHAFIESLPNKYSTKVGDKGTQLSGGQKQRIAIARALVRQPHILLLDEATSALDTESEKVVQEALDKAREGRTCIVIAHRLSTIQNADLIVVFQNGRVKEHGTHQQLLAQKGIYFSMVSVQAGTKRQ

C[C@H]1O[C@@H](O[C@H]2[C@@H](O)C[C@H](O[C@H]3[C@@H](O)C[C@H](O[C@H]4CC[C@@]5(C)[C@H](CC[C@@H]6[C@@H]5C[C@@H](O)[C@]5(C)[C@@H](C7=CC(=O)OC7)CC[C@]65O)C4)O[C@@H]3C)O[C@@H]2C)C[C@H](O)[C@@H]1O [Digoxin]
Papp A→B at 10 µM (P-gp [1]): 0.0518 ×10⁻⁶ cm/s | Papp B→A at 10 µM (P-gp [1]): 1.8 ×10⁻⁶ cm/s | AP-BL transport of digoxin (P-gp [2]; Caco-2 (Table 3)): 5.18 10^−8 cm/s | BL-AP transport of digoxin (P-gp [2]; Caco-2 (Table 3)): 1.80 ×10⁻⁶ cm/s | AP-BL transport (PappA–B) of digoxin (P-gp [2]; Caco-2 monolayers): 5.18e-08 cm/s | BL-AP transport (PappB–A) of digoxin (P-gp [2]; Caco-2 monolayers): 1.8e-06 cm/s | Caco-2 Papp (Caco-2): 1.1e-06 cm/s

COc1cc2c(cc1OC)CN(CCc1ccc(NC(=O)c3cccc4c(=O)c5cccc(OC)c5[nH]c34)cc1)CC2 [Elacridar]
Effect of pre-treatment on plasma profile of quinidine (P-gp [3]; mice): no significant difference

CN(C)CCC[C@@]1(c2ccc(F)cc2)OCc2cc(C#N)ccc21 [Escitalopram]
Increase in brain concentration (P-gp [4]): threefold

O=c1c(O)c(-c2ccc(O)c(O)c2)oc2cc(O)cc(O)c12 [Quercetin]
Increase in (AUC) 0–7h B/P of quinidine (P-gp [3]; mice, inhibitor pre-treatment): twofold | Effect of pre-treatment on plasma profile of quinidine (P-gp [3]; mice): no significant difference

C=C[C@H]1C[N@@]2CC[C@H]1C[C@@H]2[C@@H](O)c1ccnc2ccc(OC)cc12 [Quinidine]
AUC(0-inf) (P-gp [3]; brain): 251 ng·h/mL | AUC(0-t) (P-gp [3]; brain): 211 ng·h/mL | Cmax (P-gp [3]; brain): 115 ng/mL | Tmax (P-gp [3]; brain): 48 min | AUC(0-inf) (P-gp [3]; plasma): 513 ng·h/mL | AUC(0-t) (P-gp [3]; plasma): 496 ng·h/mL | Cmax (P-gp [3]; plasma): 209 ng/mL | Tmax (P-gp [3]; plasma): 39.6 min

CC[C@]1(O)C[C@@H]2CN(CCc3c([nH]c4ccccc34)[C@@](C(=O)OC)(c3cc4c(cc3OC)N(C)[C@H]3[C@@](O)(C(=O)OC)[C@H](OC(C)=O)[C@]5(CC)C=CCN6CC[C@]43[C@@H]65)C2)C1 [vinblastine]
Penetration into the brain, P-gp knockout mice compared with wild type control (P-gp [5]): 7–46 folds
